Reference: patent US20220142941A1, “COMBINATION THERAPEUTIC REGIMENS WITH 1,6-DIBROMO-1,6-DIDEOXY-DULCITOL” (Eleison Pharmaceuticals LLC, priority 2019, published 2022)

Columns and labels:
Test in all cases: DBD combination treatment, viability enhancement factor
Assay type in all cases: cell-based, human
[1] = system: GS102periNS; conditions: GS102periNS (p20 + p21), labelled therapy combined with crystalline DBD polymorph
Protocol: (§1) Crystalline DBD polymorph treatment was combined with chemotherapy, radiotherapy and targeted inhibitors to determine whether the crystalline DBD polymorph form could: enhance efficacy of the conventional therapies; enhance efficacy when combined with newer ‘targeted’ therapies; or would make (a subset of) cultures more sensitive to this treatment.
(§2) Therefore, cultures were treated with: • a.

[2] = system: GS104periNS; conditions: GS104periNS (p21 + p22), labelled therapy combined with crystalline DBD polymorph
Protocol: as §1, §2

[3] = system: GS184NS; conditions: GS184NS (p18 + p19), labelled therapy combined with crystalline DBD polymorph;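 also: DBD at its own IC50 and half IC50 determined at Day 5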
Protocol: as §1, §2

[4] = system: GS186coreNS; conditions: GS186coreNS (p18), labelled therapy combined with crystalline DBD polymorph
Protocol: as §1, §2

[5] = system: GS186periNS; conditions: GS186periNS (p15), labelled therapy combined with crystalline DBD polymorph
Protocol: as §1, §2

[6] = system: GS203NS; conditions: Day 8; GS203NS (P19 + p18); labelled therapy combined with crystalline DBD polymorph
Protocol: as §1, §2

[7] = system: GS224NS; conditions: GS224NS (p17), labelled therapy combined with crystalline DBD polymorph
Protocol: as §1, §2

[8] = system: GS245NS; conditions: GS245NS (p16 + p15), labelled therapy combined with crystalline DBD polymorph
Protocol: as §1, §2

[9] = system: GS249NS; conditions: GS249NS (p17), labelled therapy combined with crystalline DBD polymorph
Protocol: as §1, §2

[10] = system: GS257NS; conditions: GS257NS (p16 + p17), labelled therapy combined with crystalline DBD polymorph;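 also: DBD at its own IC50 and half IC50 determined at Day 5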
Protocol: as §1, §2

[11] = system: GS279coreNS; conditions: Day 5; GS279coreNS (p12 + p13); labelled therapy combined with crystalline DBD polymorph
Protocol: as §1, §2

[12] = system: GS279periNS; conditions: GS279periNS (p16 + p15), labelled therapy combined with crystalline DBD polymorph;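 also: DBD at its own IC50 and half IC50 determined at Day 5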
Protocol: as §1, §2

[13] = system: GS281NS; conditions: GS281NS (p15), labelled therapy combined with crystalline DBD polymorph
Protocol: as §1, §2

[14] = system: GS289NS; conditions: GS289NS (p15 + p16), labelled therapy combined with crystalline DBD polymorph;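 also: DBD at its own IC50 and half IC50 determined at Day 5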
Protocol: as §1, §2

[15] = system: GS304NS; conditions: GS304NS (p16), labelled therapy combined with crystalline DBD polymorph
Protocol: as §1, §2

[16] = system: GS323periNS; conditions: Day 5; GS323periNS (p20 + p19); labelled therapy combined with crystalline DBD polymorph
Protocol: as §1, §2

[17] = system: GS324coreNS; conditions: GS324coreNS (p19), labelled therapy combined with crystalline DBD polymorph
Protocol: as §1, §2

[18] = system: GS359NS; conditions: GS359NS (p15 + p14), labelled therapy combined with crystalline DBD polymorph
Protocol: as §1, §2

[19] = system: GS365NS; conditions: GS365NS (p17 + p16), labelled therapy combined with crystalline DBD polymorph
Protocol: as §1, §2

[20] = system: GS261NS; conditions: GS261NS (p13), labelled therapy combined with crystalline DBD polymorph
Protocol: as §1, §2

Compound	enhancement factor (viability % of most effective monotherapy divided by viability % of combination) ([1]; Day 5)	enhancement factor (viability % of most effective monotherapy divided by viability % of combination) ([1]; Day 8)	enhancement factor (viability % of most effective monotherapy divided by viability % of combination) ([2]; Day 8)	enhancement factor (viability % of most effective monotherapy divided by viability % of combination) ([3]; Day 5)	enhancement factor (viability % of most effective monotherapy divided by viability % of combination) ([3]; Day 8)	enhancement factor (viability % of most effective monotherapy divided by viability % of combination) ([4]; Day 5)	enhancement factor (viability % of most effective monotherapy divided by viability % of combination) ([4]; Day 8)	enhancement factor (viability % of most effective monotherapy divided by viability % of combination) ([5]; Day 5)	enhancement factor (viability % of most effective monotherapy divided by viability % of combination) ([5]; Day 8)	enhancement factor (viability % of most effective monotherapy divided by viability % of combination) ([7]; Day 5)	enhancement factor (viability % of most effective monotherapy divided by viability % of combination) ([7]; Day 8)	enhancement factor (viability % of most effective monotherapy divided by viability % of combination) ([8]; Day 5)	enhancement factor (viability % of most effective monotherapy divided by viability % of combination) ([8]; Day 8)	enhancement factor (viability % of most effective monotherapy divided by viability % of combination) ([9]; Day 5)	enhancement factor (viability % of most effective monotherapy divided by viability % of combination) ([10]; Day 5)	enhancement factor (viability % of most effective monotherapy divided by viability % of combination) ([10]; Day 8)	enhancement factor (viability % of most effective monotherapy divided by viability % of combination) [11]	enhancement factor (viability % of most effective monotherapy divided by viability % of combination) ([12]; Day 5)	enhancement factor (viability % of most effective monotherapy divided by viability % of combination) ([12]; Day 8)	enhancement factor (viability % of most effective monotherapy divided by viability % of combination) ([13]; Day 5)	also measured
C/C(=C\C(=O)Nc1ccccc1C(=O)O)c1ccc2ccccc2c1 [BIBR1532]	1.414	2.661	1.247	1.752	1.367	1.787	1.498	2.900	1.010	0.969	0.469	1.364	1.936	0.909	1.322	2.162	1.526	1.361	1.214	0.641	enhancement factor (viability % of most effective monotherapy divided by viability % of combination) [6]: 1.110; enhancement factor (viability % of most effective monotherapy divided by viability % of combination) ([13]; Day 8): 2.457; enhancement factor (viability % of most effective monotherapy divided by viability % of combination) ([14]; Day 5): 1.383; enhancement factor (viability % of most effective monotherapy divided by viability % of combination) ([14]; Day 8): 1.879; enhancement factor (viability % of most effective monotherapy divided by viability % of combination) ([15]; Day 8): 1.065; enhancement factor (viability % of most effective monotherapy divided by viability % of combination) [16]: 0.959; enhancement factor (viability % of most effective monotherapy divided by viability % of combination) ([17]; Day 5): 1.282; enhancement factor (viability % of most effective monotherapy divided by viability % of combination) ([17]; Day 8): 1.713; enhancement factor (viability % of most effective monotherapy divided by viability % of combination) ([18]; Day 5): 2.499; enhancement factor (viability % of most effective monotherapy divided by viability % of combination) ([18]; Day 8): 1.168; enhancement factor (viability % of most effective monotherapy divided by viability % of combination) ([19]; Day 5): 1.767; enhancement factor (viability % of most effective monotherapy divided by viability % of combination) ([19]; Day 8): 2.954
C[C@]1(c2nc3c(C(N)=O)cccc3[nH]2)CCCN1 [ABT-888]	1.248	1.055	1.810	1.084	1.044	1.394	1.359	1.134	1.319	1.105	1.201	1.256	0.991	2.994	0.922	1.053	1.321	1.146	1.102	0.933	enhancement factor (viability % of most effective monotherapy divided by viability % of combination) ([2]; Day 5): 1.175; enhancement factor (viability % of most effective monotherapy divided by viability % of combination) ([9]; Day 8): 5.030; enhancement factor (viability % of most effective monotherapy divided by viability % of combination) ([20]; Day 5): 1.388; enhancement factor (viability % of most effective monotherapy divided by viability % of combination) ([20]; Day 8): 1.631; enhancement factor (viability % of most effective monotherapy divided by viability % of combination) ([13]; Day 8): 0.812; enhancement factor (viability % of most effective monotherapy divided by viability % of combination) ([14]; Day 5): 1.112; enhancement factor (viability % of most effective monotherapy divided by viability % of combination) ([14]; Day 8): 1.113; enhancement factor (viability % of most effective monotherapy divided by viability % of combination) ([15]; Day 5): 1.245; enhancement factor (viability % of most effective monotherapy divided by viability % of combination) ([15]; Day 8): 1.933; enhancement factor (viability % of most effective monotherapy divided by viability % of combination) [16]: 1.106; enhancement factor (viability % of most effective monotherapy divided by viability % of combination) ([17]; Day 5): 1.275; enhancement factor (viability % of most effective monotherapy divided by viability % of combination) ([17]; Day 8): 1.322; enhancement factor (viability % of most effective monotherapy divided by viability % of combination) ([18]; Day 5): 1.175; enhancement factor (viability % of most effective monotherapy divided by viability % of combination) ([18]; Day 8): 1.148; enhancement factor (viability % of most effective monotherapy divided by viability % of combination) ([19]; Day 5): 1.096; enhancement factor (viability % of most effective monotherapy divided by viability % of combination) ([19]; Day 8): 1.052
